Peptide text beside a SMILES is read from it. Some results are limits rather than exact numbers.

In one test the target is HLA-C0602 (Homo sapiens, UniProt P10321, A176E/A330V/C350S/L171W/L180W/L218V/M285V/M309V/M331V/N104K/P208H/Q277E/Q291P/R121W/S101N/S123Y/S297R/T329A/T363A/V319A/V328M). The test is described as follows: Competitive peptide binding assay, CIR-C0602.
The target in the next test is HLA-C0102 (Homo sapiens, UniProt P10321, A176E/A330V/A35S/A97T/C350S/D114A/D33F/L171W/L180R/L218V/M285V/M309V/M331V/P208H/Q277E/Q291P/R121W/R243W/R30K/S123C/S140Y/S297R/T329A/T363A/V272M/V319A). The test can be described thus: Competitive peptide binding assay, CIR-C0102. The note with it: for IC50: HMy2.CIR-C0102 cells, reference Cy5-[…], class from inhibition at 5 and 15 μM, flow cytometry MFI, read-out: Binding affinity with HLA-C0102; for inhibition at 5 µM / inhibition at 15 µM: read-out: Inhibition % of Cy5-reference peptide binding. The method, then:
(§1) Then, competitive peptide binding assays were performed.

Another test deals with HLA-C1402 (Homo sapiens, UniProt P10321, A176E/A330V/A35S/A97T/C350S/D114A/D33S/L171W/L180R/L218V/M285V/M309V/M331V/P208H/Q277E/Q291P/R121W/R243W/S123F/S297R/S48A/T329A/T363A/V319A). The test can be described thus: Competitive peptide binding assay, CIR-C1402. Particulars: HMy2.CIR-C1402 cells, reference Cy5-[…], class from inhibition at 5 and 15 μM, flow cytometry MFI; read-out: Binding affinity with HLA-C1402. The method, then: as §1
For orientation: In flow cytometry, cells or beads pass a laser one at a time.

For a further test, the target named is HLA-C0401 (Homo sapiens, UniProt P10321, A176E/A330V/A35S/A73E/C25G/C350S/D138N/D33S/E299K/L171W/L180R/L218V/M285V/M309V/M331V/N104K/P208H/Q277E/Q291P/R243W/R38W/S101N/S123F/S140F/S297R/S48A/T329A/T363A/V319A/V327M). The test is described as follows: Competitive peptide binding assay, CIR-C0401. Particulars: HMy2.CIR-C0401 cells, reference Cy5-[…], class from inhibition at 5 and 15 μM, flow cytometry MFI; read-out: Binding affinity with HLA-C0401. The method, then: as §1

A further test has as its target HLA-C0801 (Homo sapiens, UniProt P10321, A176T/A330V/A97T/C350S/D114A/D138N/D33Y/E201K/E299G/L171W/L218V/M285V/M309V/M331V/P208H/Q277E/Q291P/R59Q/S123Y/S140F/S297R/S48A/T329A/T363A/V319A/V328M). The test can be described thus: Competitive peptide binding assay, CIR-C0801. The note with it: HMy2.CIR-C0801 cells, reference Cy5-[…], class from inhibition at 5 and 15 μM, flow cytometry MFI; read-out: Binding affinity with HLA-C0801. The method, then:
as §1

The target in another test is HLA-C0702 (Homo sapiens, UniProt P10321). The test can be described thus: Competitive peptide binding assay, CIR-C0702.
Another test concerns the target HLA-C0302 (Homo sapiens, UniProt P10321, A176E/A330V/A97T/C25G/C350S/D114A/D33Y/E197K/L127V/L171W/L218V/M285V/M309V/M331V/P208H/Q277E/Q291P/R243W/R45H/S123Y/S297R/S48A/T118I/T187L/T329A/T363A/V319A). The test is described as follows: Competitive peptide binding assay, CIR-C0302. The note with it: HMy2.CIR-C0302 cells, reference Cy5-[…], class from inhibition at 5 and 15 μM, flow cytometry MFI; read-out: Binding affinity with HLA-C0302. The method, then: as §1

A further test addresses HLA-C0304 (Homo sapiens, UniProt P10321, A176E/A330V/A97T/C25G/C350S/D114A/D33Y/E197K/L119I/L127V/L171W/L218V/M285V/M309V/M331V/P208H/Q277E/Q291P/R243W/R45H/S123Y/S140Y/S297R/S48A/T118I/T187L/T329A/T363A/V319A). The test can be described thus: Competitive peptide binding assay, CIR-C0304. The note with it: HMy2.CIR-C0304 cells, reference Cy5-[…], class from inhibition at 5 and 15 μM, flow cytometry MFI; read-out: Binding affinity with HLA-C0304. The method, then:
as §1

The next test deals with HLA-C0303 (Homo sapiens, UniProt P10321, A176E/A330V/A97T/C25G/C350S/D114A/D33Y/E197K/G115R/L119I/L127V/L171W/L218V/M285V/M309V/M331V/P208H/Q277E/Q291P/R243W/R45H/S123Y/S140Y/S297R/S48A/T118I/T187L/T329A/T363A/V319A). The test is described as follows: Competitive peptide binding assay, CIR-C0303. Particulars: HMy2.CIR-C0303 cells, reference Cy5-[…], class from inhibition at 5 and 15 μM, flow cytometry MFI; read-out: Binding affinity with HLA-C0303. As for the experimental part: as §1

On to `CC(C)[C@H](NC(=O)CNC(=O)[C@H](Cc1c[nH]cn1)NC(=O)[C@@H]1CCCN1C(=O)[C@H](C)NC(=O)[C@H](CO)NC(=O)[C@@H](N)CCC(N)=O)C(=O)N[C@H](C(=O)N[C@@H](Cc1ccccc1)C(=O)O)C(C)C` [Epitope M69] (H-QSAPHGVVF-OH; N-terminus and C-terminus assumed), for which the IC50 on HLA-C0602, at HLA-C0102, on HLA-C1402, at HLA-C0401 and on HLA-C0801 was greater than 15 µM each time.

Take `CC[C@H](C)[C@H](NC(=O)[C@H](C)NC(=O)[C@H](C)NC(=O)[C@H](CC(N)=O)NC(=O)[C@H](CC(N)=O)NC(=O)[C@H](C)NC(=O)[C@@H]1CCCN1C(=O)[C@H](CC(N)=O)NC(=O)[C@H](CCCNC(=N)N)NC(=O)[C@@H](N)[C@@H](C)O)C(=O)O` [Epitope M117] (H-TRNPANNAAI-OH; N-terminus and C-terminus assumed): the IC50 on HLA-C0602 is less than 5 µM; on HLA-C0102, greater than 15 µM; at HLA-C1402, greater than 15 µM; at HLA-C0702, less than 5 µM. In addition, the inhibition (as a rule, the change of the read-out against control, counted positive when it falls) at 5 µM at HLA-C0102 was 21%.

Take `CC[C@H](C)[C@H](NC(=O)[C@@H](NC(=O)[C@@H](N)CO)[C@@H](C)CC)C(=O)N[C@@H](C)C(=O)N[C@@H](Cc1ccc(O)cc1)C(=O)N[C@H](C(=O)N[C@@H](CCSC)C(=O)N[C@@H](CO)C(=O)N[C@@H](CC(C)C)C(=O)O)[C@@H](C)O` [Epitope M86] (H-SIIAYTMSL-OH; N-terminus and C-terminus assumed): the IC50 is 5 to 15 µM on HLA-C0102, greater than 15 µM on HLA-C1402, 5 to 15 µM on HLA-C0401 and greater than 15 µM at HLA-C0302.

For `CC[C@H](C)[C@H](NC(=O)[C@H](CC(N)=O)NC(=O)[C@H](CC(=O)O)NC(=O)[C@H](CO)NC(=O)[C@H](CO)NC(=O)[C@@H](N)CO)C(=O)N[C@@H](C)C(=O)N[C@@H](CC(C)C)C(=O)N[C@@H](CC(C)C)C(=O)O` [Epitope M111] (H-SSSDNIALL-OH; N-terminus and C-terminus assumed), the IC50 was 5 to 15 µM at HLA-C0602; greater than 15 µM at HLA-C0102; greater than 15 µM at HLA-C1402; less than 5 µM at HLA-C0401; greater than 15 µM on HLA-C0702. At HLA-C0102, the inhibition at 5 µM was 30.9%. The inhibition at 15 µM at HLA-C0102 was determined as 47.1%.

With `CC(C)C[C@H](NC(=O)[C@H](CC(C)C)NC(=O)[C@H](Cc1ccccc1)NC(=O)[C@@H](NC(=O)[C@@H](NC(=O)[C@H](Cc1ccccc1)NC(=O)[C@H](C)NC(=O)[C@H](CC(C)C)NC(=O)[C@@H](N)Cc1ccccc1)C(C)C)C(C)C)C(=O)O` [Epitope M76] (H-FLAFVVFLL-OH; N-terminus and C-terminus assumed), the IC50 on HLA-C0304 is less than 5 µM; at HLA-C1402, greater than 15 µM; on HLA-C0702 it was 5 to 15 µM; at HLA-C0302, 5 to 15 µM.

In the case of `CC[C@H](C)[C@H](NC(=O)[C@@H](NC(=O)[C@H](CC(N)=O)NC(=O)[C@H](CCCNC(=N)N)NC(=O)[C@H](CCCCN)NC(=O)[C@@H](NC(=O)[C@H](Cc1ccc(O)cc1)NC(=O)[C@H](C)NC(=O)[C@@H](N)Cc1ccccc1)[C@@H](C)O)C(C)C)C(=O)O` [Epitope M23] (H-FAYTKRNVI-OH; N-terminus and C-terminus assumed), the IC50 is less than 5 µM at HLA-C0303, 5 to 15 µM on HLA-C0102, greater than 15 µM on HLA-C0401 and greater than 15 µM on HLA-C0801. The inhibition at 15 µM at HLA-C0102 is 78.9%.

Take `CC(C)C[C@H](NC(=O)[C@H](CC(C)C)NC(=O)[C@H](Cc1ccccc1)NC(=O)[C@@H](NC(=O)[C@H](CCCNC(=N)N)NC(=O)[C@@H]1CCCN1C(=O)[C@H](CCC(N)=O)NC(=O)[C@H](CC(C)C)NC(=O)[C@@H](N)Cc1ccc(O)cc1)[C@@H](C)O)C(=O)O` [Epitope M35] (H-YLQPRTFLL-OH; N-terminus and C-terminus assumed): the IC50 at HLA-C0304 was greater than 15 µM; at HLA-C0102, greater than 15 µM; on HLA-C1402, 5 to 15 µM; on HLA-C0702 it was less than 5 µM; on HLA-C0302, greater than 15 µM.

Regarding `CC[C@H](C)[C@H](NC(=O)[C@@H]1CCCN1C(=O)[C@H](CCSC)NC(=O)[C@H](CC(C)C)NC(=O)[C@H](CC(C)C)NC(=O)[C@H](CO)NC(=O)[C@H](Cc1ccc(O)cc1)NC(=O)[C@@H](N)Cc1ccc(O)cc1)C(=O)N[C@@H](CC(C)C)C(=O)O` [Epitope M95], the IC50 at HLA-C0602 is greater than 15 µM; on HLA-C0102, 5 to 15 µM; at HLA-C1402 it was 5 to 15 µM; at HLA-C0702 it was greater than 15 µM.

Consider `CC[C@H](C)[C@H](N)C(=O)N[C@@H](C)C(=O)N[C@@H](CC(N)=O)C(=O)N[C@@H](CCC(N)=O)C(=O)N[C@@H](Cc1ccccc1)C(=O)N[C@@H](CC(N)=O)C(=O)N[C@@H](CO)C(=O)N[C@@H](C)C(=O)N[C@H](C(=O)O)[C@@H](C)CC` [Epitope M37] (H-IANQFNSAI-OH; N-terminus and C-terminus assumed), for which the IC50 on HLA-C0303 was less than 5 µM; at HLA-C0602 it was greater than 15 µM; on HLA-C0102, less than 5 µM; at HLA-C0401, greater than 15 µM; on HLA-C0801, greater than 15 µM. Also, the inhibition at 5 µM on HLA-C0102 came out at 68.9%. Further, on HLA-C0102, the inhibition at 15 µM worked out at 86.1%.

Take `CC[C@H](C)[C@H](N)C(=O)N[C@H](C(=O)N[C@@H](CC(N)=O)C(=O)N[C@@H](CO)C(=O)N[C@H](C(=O)N[C@@H](CC(C)C)C(=O)N[C@@H](CC(C)C)C(=O)N[C@@H](Cc1ccccc1)C(=O)N[C@@H](CC(C)C)C(=O)O)C(C)C)C(C)C` [Epitope M7] (H-IVNSVLLFL-OH; N-terminus and C-terminus assumed): the IC50 at HLA-C0602 was 5 to 15 µM; at HLA-C0304, greater than 15 µM; on HLA-C0102 it was less than 5 µM; at HLA-C1402, greater than 15 µM; on HLA-C0401, 5 to 15 µM; on HLA-C0702 it was greater than 15 µM. The IC50 at HLA-C0302 was greater than 15 µM.

As to `CSCC[C@H](NC(=O)[C@H](C)NC(=O)[C@@H]1CCCN1C(=O)[C@H](CC(=O)O)NC(=O)[C@H](C)NC(=O)[C@H](C)NC(=O)[C@H](Cc1ccc(O)cc1)NC(=O)[C@@H](NC(=O)[C@@H](N)CC(C)C)C(C)C)C(=O)O` [Epitope M58] (H-LVYAADPAM-OH; N-terminus and C-terminus assumed), the IC50 on HLA-C0303 is 5 to 15 µM; at HLA-C0102 it was greater than 15 µM; on HLA-C0401, greater than 15 µM; on HLA-C0801 it was greater than 15 µM; on HLA-C0702, greater than 15 µM; on HLA-C0302, less than 5 µM.

Regarding `CC(C)C[C@H](NC(=O)[C@@H](NC(=O)[C@@H](NC(=O)CNC(=O)[C@H](CCC(N)=O)NC(=O)[C@@H]1CCCN1C(=O)[C@H](CC(C)C)NC(=O)[C@H](CCC(N)=O)NC(=O)[C@@H](N)CC(C)C)[C@@H](C)O)[C@@H](C)O)C(=O)O` [Epitope M13] (H-LQLPQGTTL-OH; N-terminus and C-terminus assumed), the IC50 was less than 5 µM at HLA-C0304, greater than 15 µM on HLA-C1402, 5 to 15 µM at HLA-C0401 and 5 to 15 µM at HLA-C0702.
